# Reference: paper PMC10185560, “Turn air-captured CO2 with methanol into amino acid and pyruvate in an ATP/NAD(P)H-free chemoenzymatic system” (Nature Communications, 2023)
# Columns and labels:
# L protein = target: T1, L protein (Escherichia coli, UniProt P0A9P0); experiment: NADH formation at […] nm; type: biochemical
# T1 construct: gene lpdA
# T1 sequence (P0A9P0 2-474): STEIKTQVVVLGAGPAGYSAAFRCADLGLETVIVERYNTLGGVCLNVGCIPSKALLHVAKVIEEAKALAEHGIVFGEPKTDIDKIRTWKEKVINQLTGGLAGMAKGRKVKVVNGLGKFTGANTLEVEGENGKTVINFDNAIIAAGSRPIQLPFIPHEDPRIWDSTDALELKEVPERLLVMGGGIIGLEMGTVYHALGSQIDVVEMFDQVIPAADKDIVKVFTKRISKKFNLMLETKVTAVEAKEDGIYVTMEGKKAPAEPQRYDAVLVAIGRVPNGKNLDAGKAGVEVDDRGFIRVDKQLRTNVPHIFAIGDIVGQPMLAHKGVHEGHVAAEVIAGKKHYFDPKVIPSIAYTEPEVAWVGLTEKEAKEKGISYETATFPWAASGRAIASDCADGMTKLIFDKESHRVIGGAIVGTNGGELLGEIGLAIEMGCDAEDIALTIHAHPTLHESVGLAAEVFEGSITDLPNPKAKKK
# MsLSD = target: T2, MsLSD (Mycolicibacterium smegmatis, UniProt A0QY48); experiment: residual serine dehydratase activity; type: biochemical; conditions: 75% loss printed at 20 mM, reactive inactivator
# T2 construct: gene MSMEG_3532; described as PLP-dependent
# T2 sequence (A0QY48 1-316): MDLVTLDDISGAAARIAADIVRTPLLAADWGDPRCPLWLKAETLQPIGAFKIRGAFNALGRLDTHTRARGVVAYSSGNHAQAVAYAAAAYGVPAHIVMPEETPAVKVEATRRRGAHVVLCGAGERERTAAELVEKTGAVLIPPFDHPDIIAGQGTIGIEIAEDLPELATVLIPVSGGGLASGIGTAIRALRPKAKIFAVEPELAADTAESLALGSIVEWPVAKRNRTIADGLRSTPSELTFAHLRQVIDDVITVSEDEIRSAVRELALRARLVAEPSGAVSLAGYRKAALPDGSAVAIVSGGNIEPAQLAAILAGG
# LpLSD = target: T3, LpLSD (Legionella pneumophila, UniProt Q5ZXE1); conditions: freshly made enzyme
# T3 construct: gene sda-2
# T3 sequence (Q5ZXE1 1-458): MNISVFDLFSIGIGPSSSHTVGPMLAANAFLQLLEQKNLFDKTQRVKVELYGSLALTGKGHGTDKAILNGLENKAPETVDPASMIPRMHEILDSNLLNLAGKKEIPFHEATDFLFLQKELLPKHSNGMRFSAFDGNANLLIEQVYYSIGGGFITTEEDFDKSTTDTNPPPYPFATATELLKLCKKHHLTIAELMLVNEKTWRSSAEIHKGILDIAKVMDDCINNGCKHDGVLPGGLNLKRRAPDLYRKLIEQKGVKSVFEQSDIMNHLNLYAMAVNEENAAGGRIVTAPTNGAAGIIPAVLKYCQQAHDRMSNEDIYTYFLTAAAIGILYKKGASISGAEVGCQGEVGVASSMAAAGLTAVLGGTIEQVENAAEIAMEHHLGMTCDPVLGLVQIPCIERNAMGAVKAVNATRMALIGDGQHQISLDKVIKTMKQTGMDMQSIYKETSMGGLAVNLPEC
smiles,measurement,setting,value
NC(=O)c1ccc[n+]([C@@H]2O[C@H](COP(=O)(O)OP(=O)(O)OC[C@H]3O[C@@H](n4cnc5c(N)ncnc54)[C@H](O)[C@@H]3O)[C@@H](O)[C@H]2O)c1 [NAD^+],NADH formation at 340 nm,L protein,Hred was then re-oxidized by L-protein in the presence of NAD^+
C=O [formaldehyde],activity loss at 10 mM formaldehyde,MsLSD,~ 50%
N[C@@H](CO)C(=O)O [serine],pyruvate formation by HPLC,LpLSD,The fresh-made LpLSD enzyme showed similar activities
